The values below come from ChEMBL document CHEMBL1148445, “Synthesis of 2',5'-dideoxy-2-fluoroadenosine and 2',5'-dideoxy-2,5'-difluoroadenosine: potent P-site inhibitors of adenylyl cyclase” (J Med Chem, 2004).

The test deals with Adenylate cyclase type 5 (Rattus norvegicus, UniProt Q04400). As to the kind of experiment: Compound was evaluated for inhibition of adenylate cyclase from rat brain. In kind it is tissue-based.
Adenylate cyclase type 5, sequence (Q04400 whole entry): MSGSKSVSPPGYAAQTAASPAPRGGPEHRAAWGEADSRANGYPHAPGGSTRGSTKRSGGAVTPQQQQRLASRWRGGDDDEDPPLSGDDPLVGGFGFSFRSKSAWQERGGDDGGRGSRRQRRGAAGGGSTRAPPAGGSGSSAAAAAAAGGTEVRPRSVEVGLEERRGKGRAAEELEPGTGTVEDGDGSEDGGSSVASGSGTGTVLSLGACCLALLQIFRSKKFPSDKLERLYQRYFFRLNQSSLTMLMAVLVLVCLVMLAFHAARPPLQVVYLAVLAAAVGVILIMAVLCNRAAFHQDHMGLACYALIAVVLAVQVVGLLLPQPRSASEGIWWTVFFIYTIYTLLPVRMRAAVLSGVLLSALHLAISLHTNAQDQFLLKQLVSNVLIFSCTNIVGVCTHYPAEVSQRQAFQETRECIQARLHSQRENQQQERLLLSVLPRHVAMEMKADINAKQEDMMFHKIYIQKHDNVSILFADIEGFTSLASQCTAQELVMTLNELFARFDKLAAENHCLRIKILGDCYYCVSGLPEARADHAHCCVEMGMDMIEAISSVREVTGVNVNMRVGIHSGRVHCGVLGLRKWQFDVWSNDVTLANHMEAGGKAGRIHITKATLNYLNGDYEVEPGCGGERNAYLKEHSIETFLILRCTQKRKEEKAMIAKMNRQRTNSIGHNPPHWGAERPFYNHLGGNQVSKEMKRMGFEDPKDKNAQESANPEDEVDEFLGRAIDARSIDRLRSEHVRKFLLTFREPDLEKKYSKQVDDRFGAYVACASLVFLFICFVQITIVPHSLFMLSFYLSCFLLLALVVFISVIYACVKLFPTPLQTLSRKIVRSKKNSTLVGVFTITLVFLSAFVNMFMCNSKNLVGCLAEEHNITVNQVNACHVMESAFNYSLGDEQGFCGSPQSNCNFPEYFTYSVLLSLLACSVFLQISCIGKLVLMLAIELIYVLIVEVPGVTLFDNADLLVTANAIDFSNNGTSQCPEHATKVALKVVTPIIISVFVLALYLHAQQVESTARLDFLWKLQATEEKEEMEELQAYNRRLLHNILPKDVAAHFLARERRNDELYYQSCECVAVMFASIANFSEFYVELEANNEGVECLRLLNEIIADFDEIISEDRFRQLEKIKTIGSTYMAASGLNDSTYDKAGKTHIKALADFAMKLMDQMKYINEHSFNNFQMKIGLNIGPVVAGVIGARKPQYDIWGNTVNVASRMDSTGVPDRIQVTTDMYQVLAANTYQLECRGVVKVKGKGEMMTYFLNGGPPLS
Consider `C[C@@H]1O[C@H](n2cnc3c(N)ncnc32)C[C@H]1O`, for which the IC50 worked out at 2.8 µM. In turn, `Nc1nc(F)nc2c1ncn2[C@H]1C[C@H](O)[C@@H](CO)O1` (stereo in doubt; form 1) showed an IC50 of 4.6 µM. For `C[C@H]1O[C@@H](n2cnc3c(N)nc(F)nc32)C[C@@H]1O` (stereo in doubt; form 1) the value was more than 100 µM. For `Nc1nc(F)nc2c1ncn2[C@H]1C[C@H](O)[C@@H](CF)O1` (stereo in doubt; form 1) the value was 29 µM; for `Nc1nc(F)nc2c1ncn2[C@H]1C[C@H](O)[C@@H](CO)O1` (stereo in doubt; form 2), more than 100 µM.

In turn, `C[C@H]1O[C@@H](n2cnc3c(N)nc(F)nc32)C[C@@H]1O` (stereo in doubt; form 2) showed an IC50 of 0.89 µM.

The compound `Nc1nc(F)nc2c1ncn2[C@H]1C[C@H](O)[C@@H](CF)O1` (stereo in doubt; form 2) yielded an IC50 of 0.98 µM. This IC50 and that of the compound before are within 1.5-fold of each other. For `Nc1ncnc2c1ncn2[C@@H]1O[C@H](CO)[C@@H](O)[C@H]1O` [ADENOSINE] the value was more than 300 µM; for `Nc1ncnc2c1ncn2[C@H]1C[C@H](O)[C@@H](CO)O1` [DEOXYADENOSINE], 15 µM; for `Nc1ncnc2c1ncn2[C@@H]1O[C@H](CO)[C@@H](O)[C@@H]1O` [VIDARABINE], 82 µM.
